The values below come from patent US12391723B2, “Steroids and methods of manufacture” (Trustees of Dartmouth College, priority 2017, dated 2025).

Assay [1] relates to three human cancer cell lines. Description: Growth inhibition by compound 39, total DNA content after 7 days growth. To be noted: 168 h, range across three human cancer cell lines, read-out: 50% inhibitory concentrations. The format is cell-based. How it is done:
(§1) The following day, ent-steroidal compound 39 was added in 2-fold dilutions (8 wells/concentration). After 7 days growth, cells were lysed and analyzed for total DNA content as described in Montano et al. (See, Montano, R., et al., Mol. Cancer Therap., 11:427-438 [2012]).

Assay [2] has as its system AsPC-1. The assay can be described thus: Growth inhibition by Compound 39 (DNA fluorescence, FIG. 3D). The format is cell-based. Conditions: Homo sapiens, ASPC1, read-out: calculated GI50 against AsPC-1. As to the method:
as §1
(§2) Compound 39 was also investigated for growth inhibition in three cancer cell lines: MDA-MB-231, AsPC-1, and U2OS (human osteosarcoma).

Assay [3] has as its system MDA-MB-231. The assay is described as above. Format: cell-based. To be noted: Homo sapiens, read-out: calculated GI50 against MDA-MB-231. How it is done:
as §1, §2

Assay [4] deals with U2OS (human osteosarcoma). The description is as above. To be noted: read-out: calculated GI50 against U2OS. Format: cell-based. How it is done:
as §1, §2

Assay [5] relates to AsPC-1. Description: In vitro growth inhibition (Hoechst 33258 DNA fluorescence, 6 days). Format: cell-based. Conditions: Homo sapiens, ASPC1, 144 h, concentration that inhibited growth by 50%, 2-fold dilutions from 40 μM. As to the method: (§3) Fifteen (15) exemplary compounds were investigated for growth inhibition in two cancer cell lines (one for breast and one for pancreatic cancer: MDA-MB-231 and AsPC-1, respectively).
(§4) Procedure: Inhibition of cell growth was accessed by plating 1000 cells per well of a 96-well plate. The following day, compounds were added as 2-fold dilutions from 40 μM (8 wells/concentration). After 6 days, cells were washed, lysed and stained with Hoechst 33258. Fluorescence was read on a microplate spectrofluorometer. Results are expressed as the concentration that inhibited growth by 50% (GI50). See Rao, J., Otto, W. R. Fluorometric DNA assay for cell growth estimation. Anal Biochem. 1992; 207:186-192.

Assay [6] concerns MDA-MB-231. The description is as above. Format: cell-based. To be noted: Homo sapiens, MDA-MB-231, 144 h, concentration that inhibited growth by 50%, 2-fold dilutions from 40 μM. As to the method: as §3, §4
Another assay addresses ER-β (Homo sapiens, UniProt Q92731). The assay can be described thus: ER-β agonist activity. Format: cell-based.
For the next assay, the target named is T1, ER-α (Homo sapiens, UniProt P03372).
T1 sequence (P03372 1-595): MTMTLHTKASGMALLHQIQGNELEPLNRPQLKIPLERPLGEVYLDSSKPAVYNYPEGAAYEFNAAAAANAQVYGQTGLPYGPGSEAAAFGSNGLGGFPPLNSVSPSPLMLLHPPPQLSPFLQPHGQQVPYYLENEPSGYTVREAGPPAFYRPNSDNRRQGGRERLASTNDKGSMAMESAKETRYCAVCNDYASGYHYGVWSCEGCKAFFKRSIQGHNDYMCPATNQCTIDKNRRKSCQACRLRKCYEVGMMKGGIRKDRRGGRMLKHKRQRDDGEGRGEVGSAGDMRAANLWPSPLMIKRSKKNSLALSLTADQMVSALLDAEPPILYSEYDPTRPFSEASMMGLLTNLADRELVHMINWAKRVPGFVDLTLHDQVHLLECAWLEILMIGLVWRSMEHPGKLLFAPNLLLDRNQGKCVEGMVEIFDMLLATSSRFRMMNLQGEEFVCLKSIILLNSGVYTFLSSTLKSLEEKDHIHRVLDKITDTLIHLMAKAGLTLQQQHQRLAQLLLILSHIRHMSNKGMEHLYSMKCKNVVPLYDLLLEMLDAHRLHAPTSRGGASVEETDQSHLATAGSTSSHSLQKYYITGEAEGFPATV
Description: ER-α agonist activity. Format: cell-based.

For a further assay, the target named is CLK-4 (Homo sapiens, UniProt Q9HAZ1). The assay can be described thus: Affinity to CLK-4. To be noted: member of the family of CDC-2-like kinases. Format: binding.
CLK-4, sequence (Q9HAZ1 whole entry, species assumed): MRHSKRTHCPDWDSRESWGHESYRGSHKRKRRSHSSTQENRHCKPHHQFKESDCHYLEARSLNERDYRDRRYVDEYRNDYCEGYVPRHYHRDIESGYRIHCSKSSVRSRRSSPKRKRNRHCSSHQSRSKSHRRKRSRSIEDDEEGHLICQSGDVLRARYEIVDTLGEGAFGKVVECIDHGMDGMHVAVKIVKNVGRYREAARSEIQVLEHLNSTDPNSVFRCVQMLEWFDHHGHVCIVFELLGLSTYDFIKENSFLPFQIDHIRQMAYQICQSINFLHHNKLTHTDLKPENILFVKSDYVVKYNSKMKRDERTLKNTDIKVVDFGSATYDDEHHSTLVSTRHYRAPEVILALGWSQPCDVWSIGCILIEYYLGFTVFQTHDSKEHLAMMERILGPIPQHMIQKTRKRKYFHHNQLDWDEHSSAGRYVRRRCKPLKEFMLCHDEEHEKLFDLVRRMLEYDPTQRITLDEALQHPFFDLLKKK
The subject of assay [7] is MDA-MB-231, AsPC-1, and A549. The assay can be described thus: Growth of several cancer cell lines incubated with Compound 205b. Format: cell-based, human. Conditions: range across MDA-MB-231, AsPC-1, and A549. How it is done: as §4
(§5) Compound 205b has been identified as a uniquely potent and selective agonist of ER-β, having an EC50=20 nM for ER-β and an EC50 over 3000 nM for ER-α.

The test system of assay [8] is cancer cell lines (MDA-MB-231, AsPC-1, and A549). The assay can be described thus: Cell cycle analysis and microscopic analysis of cancer cells treated with Compound 205b. Format: cell-based, human. To be noted: at 0.8-5 μM. How it is done:
as §5

Molecules are shown by their SMILES. Where “and” joins values, the source holds several entries; their conditions need not be identical. Equal entries are not always repeated. Some results are limits rather than exact numbers.

ER-β, sequence (Q92731 whole entry, species assumed): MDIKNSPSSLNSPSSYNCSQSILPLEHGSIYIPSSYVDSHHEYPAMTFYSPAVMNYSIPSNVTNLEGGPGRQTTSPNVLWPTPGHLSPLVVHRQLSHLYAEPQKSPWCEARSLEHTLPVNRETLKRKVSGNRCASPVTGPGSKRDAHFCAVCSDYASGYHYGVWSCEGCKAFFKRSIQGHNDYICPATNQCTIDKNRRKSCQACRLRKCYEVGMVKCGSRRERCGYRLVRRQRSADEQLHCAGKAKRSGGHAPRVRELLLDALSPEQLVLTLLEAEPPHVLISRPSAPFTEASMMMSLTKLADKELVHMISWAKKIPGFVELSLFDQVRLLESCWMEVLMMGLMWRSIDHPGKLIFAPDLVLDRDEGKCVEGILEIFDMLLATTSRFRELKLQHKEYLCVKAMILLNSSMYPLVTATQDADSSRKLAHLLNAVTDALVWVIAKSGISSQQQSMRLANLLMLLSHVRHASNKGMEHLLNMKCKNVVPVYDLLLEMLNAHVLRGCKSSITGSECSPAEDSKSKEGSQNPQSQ

Turning to `C[C@@]12CC=C3C(=CC(=O)c4ccccc43)[C@H]1C[C@H](O)C2` [Compound 39], the IC50 in assay [1] was 1.2 µM to 4 µM and 0.32 µg/mL to 1.07 µg/mL. Moreover, the GI50 was about 4 µM in the assay on AsPC-1 [2]; 0.32 µg/mL and 1.2 µM in the assay on MDA-MB-231 [3]; about 4 µM in [4].
For `COc1ccc2c(Br)cc3c(c2c1)CC[C@]1(C)C[C@H](O)C[C@@H]31` [Compound 201a], the GI50 in the assay with AsPC-1 [5] and in the assay on MDA-MB-231 [6] was 15 µM each time.
On to `COc1ccc2ccc3c(c2c1)CC[C@]1(C)C[C@H](O)C[C@@H]31` [Compound 201b], for which the GI50 came to 30 µM with AsPC-1 [5] and 25 µM with MDA-MB-231 [6].
The like results for `COc1ccc2c(C#Cc3ccccc3)cc3c(c2c1)CC[C@]1(C)C[C@H](O)C[C@@H]31` [Compound 201c] were, in that order, 30 µM and 20 µM.
For `C[C@]12CCc3c(cc(Br)c4ccc(O)cc34)[C@@H]1C[C@@H](O)C2` [Compound 205a], the GI50 with AsPC-1 [5] was 10 µM; in the assay on MDA-MB-231 [6], 17 µM.
With `C[C@]12CCc3c(ccc4ccc(O)cc34)[C@@H]1C[C@@H](O)C2` [Compound 205b], the GI50 was determined as 2 µM with AsPC-1 [5] and 0.8 µM in the assay on MDA-MB-231 [6]. Further, the concentration giving a half-maximal response (EC50) on ER-β is 0.02 µM; on ER-α it was over 3 µM. In addition, at CLK-4, the Kd was about 0.35 µM. For the same molecule, in assay [7], the “concentration at which growth was inhibited” value was 0.8 to 5 µM. Besides, the “mitotic arrest by microscopic analysis” value in assay [8] is on record as “cells arrested in mitosis at prometaphase”. In assay [8] (parallel experiments), the cell cycle arrest entry was “arrested cells in G2/M phase of the cell cycle”.
As for `C[C@]12CCc3c(cc(C#Cc4ccccc4)c4ccc(O)cc34)[C@@H]1C[C@@H](O)C2` [Compound 205c], the concentration for 50% growth inhibition (GI50) stood at 9 µM with AsPC-1 [5] and 8 µM with MDA-MB-231 [6].
As to `COc1ccc2c(Br)cc3c(c2c1)CC[C@]1(C)C[C@@H](O)C[C@@H]31` [Compound 206a], the concentration for 50% growth inhibition (GI50) with AsPC-1 [5] and in the assay with MDA-MB-231 [6] was 20 µM throughout.
As to `COc1ccc2ccc3c(c2c1)CC[C@]1(C)C[C@@H](O)C[C@@H]31` [Compound 206b], the figures for the GI50 in the assay with AsPC-1 [5] and in the assay on MDA-MB-231 [6] were 40 µM and 30 µM, respectively.
For `COc1ccc2c(C#Cc3ccccc3)cc3c(c2c1)CC[C@]1(C)C[C@@H](O)C[C@@H]31` [Compound 206c], in that order: 15 µM and 15 µM.
The like results for `C[C@]12CCc3c(cc(Br)c4ccc(O)cc34)[C@@H]1C[C@H](O)C2` [Compound 207a] were, in that order, 30 µM and 30 µM.
In the case of `C[C@]12CCc3c(ccc4ccc(O)cc34)[C@@H]1C[C@H](O)C2` [Compound 207b], the 50% growth inhibitory concentration (GI50) in the assay with AsPC-1 [5] was 40 µM; in the assay with MDA-MB-231 [6] it was 20 µM.
For the molecule `C[C@]12CCc3c(cc(C#Cc4ccccc4)c4ccc(O)cc34)[C@@H]1C[C@H](O)C2` [Compound 207c], the concentration for 50% growth inhibition (GI50) in the assay on AsPC-1 [5] was 15 µM; with MDA-MB-231 [6], 5 µM.
For `COc1ccc2c(F)cc3c(c2c1)CC[C@]1(C)C[C@H](O)C[C@@H]31` [Compound 208a], in that order: 30 µM and 25 µM.
The like results for `C[C@]12CCc3c(cc(F)c4ccc(O)cc34)[C@@H]1C[C@@H](O)C2` [Compound 208b] were, in that order, 8 µM and 4 µM.
The like results for `COc1ccc2c(F)cc3c(c2c1)CC[C@]1(C)C[C@@H](O)C[C@@H]31` [Compound 208c] were, in that order, 25 µM and 5 µM.

The GI50 is the concentration that inhibits growth by half. A word on the EC50: it is the concentration needed to bring the measured effect to its halfway point. A higher EC50 goes with a less potent agent. The term Kd denotes the equilibrium constant for the complex coming apart. Lower therefore signals a tighter complex.
